Common to all, as to assay type: functional
One assay concerns Escherichia coli. In words: Antibacterial activity against Escherichia coli ATCC 25922 after 16 to 18 hr by NCCLS broth macrodilution method.
Another assay has as its system Pseudomonas aeruginosa. The assay can be described thus: Antibacterial activity against Pseudomonas aeruginosa ATCC 27953 after 16 to 18 hr by NCCLS broth macrodilution method.
The next assay has as its system Candida albicans. The assay can be described thus: Antifungal activity against Candida albicans clinical isolate after 24 hr by NCCLS broth macrodilution method.
In a further assay the test system is Staphylococcus aureus. In words: Antibacterial activity against Staphylococcus aureus ATCC 29213 after 16 to 18 hr by NCCLS broth macrodilution method.

Values after ≈ are worked out from the molar mass of the structure shown.

With `CC1CCCCN1CC#CCn1nc(-c2ccc(Cl)cc2)n(-c2ccccc2)c1=O` (stereo unspecified), the minimum inhibitory concentration (MIC) was determined as 50 µg/mL (≈ 119 µM) against Escherichia coli, 100 µg/mL (≈ 238 µM) in the assay on Pseudomonas aeruginosa, 50 µg/mL (≈ 119 µM) in the assay with Candida albicans and 12.5 µg/mL (≈ 29.7 µM) with Staphylococcus aureus.
As for `O=c1n(CC#CCN2CCCCCCC2)nc(-c2ccccc2)n1-c1cccc2ccccc12`, the MIC against Escherichia coli came out at 25 µg/mL (≈ 55.5 µM); against Pseudomonas aeruginosa it was 50 µg/mL (≈ 111 µM); against Candida albicans it was 12 µg/mL (≈ 26.6 µM); in the assay on Staphylococcus aureus, 50 µg/mL (≈ 111 µM).
Take `O=c1n(CC#CCN2CCCC2)nc(-c2ccccc2)n1-c1ccccc1`: the MIC with Escherichia coli was 50 µg/mL (≈ 139 µM); with Pseudomonas aeruginosa, 100 µg/mL (≈ 279 µM); in the assay with Candida albicans, 25 µg/mL (≈ 69.7 µM); in the assay with Staphylococcus aureus, 25 µg/mL (≈ 69.7 µM).
Take `CC1CCCN(CC#CCn2nc(-c3ccccc3)n(-c3cccc4ccccc34)c2=O)C1` (stereo unspecified): the MIC came to 50 µg/mL (≈ 115 µM) against Escherichia coli, 100 µg/mL (≈ 229 µM) against Pseudomonas aeruginosa, 50 µg/mL (≈ 115 µM) in the assay on Candida albicans and 25 µg/mL (≈ 57.3 µM) with Staphylococcus aureus.
For `O=c1n(CC#CCN2CCCCCC2)nc(-c2ccccc2)n1-c1ccccc1`, the MIC is 12.5 µg/mL (≈ 32.3 µM) with Escherichia coli, 50 µg/mL (≈ 129 µM) in the assay with Pseudomonas aeruginosa, 12.5 µg/mL (≈ 32.3 µM) in the assay on Candida albicans and 6.25 µg/mL (≈ 16.2 µM) against Staphylococcus aureus.
Turning to `O=c1n(CC#CCN2CCCCCCC2)nc(-c2ccccc2)n1-c1ccccc1`, the MIC against Escherichia coli came to 6.25 µg/mL (≈ 15.6 µM); against Pseudomonas aeruginosa, 25 µg/mL (≈ 62.4 µM); in the assay on Candida albicans it was 12.5 µg/mL (≈ 31.2 µM); with Staphylococcus aureus it was 6.25 µg/mL (≈ 15.6 µM).
The compound `CC(=O)N1CCN(c2ccc(OCC3COC(Cn4ccnc4)(c4ccc(Cl)cc4Cl)O3)cc2)CC1` (stereo unspecified) [KETOCONAZOLE] came in with a minimum inhibitory concentration (MIC) against Candida albicans of 12.5 µg/mL (≈ 23.5 µM).
Turning to `CC1COc2c(N3CCN(C)CC3)c(F)cc3c(=O)c(C(=O)O)cn1c23` (stereo unspecified) [OFLOXACIN], the MIC was 12.5 µg/mL (≈ 34.6 µM) against Escherichia coli, 25 µg/mL (≈ 69.2 µM) in the assay with Pseudomonas aeruginosa and 12.5 µg/mL (≈ 34.6 µM) in the assay with Staphylococcus aureus.
For `CC1CCCCN1CC#CCn1nc(-c2ccccc2)n(-c2ccccc2)c1=O` (stereo unspecified), the MIC in the assay with Escherichia coli was found to be 50 µg/mL (≈ 129 µM); against Pseudomonas aeruginosa it was 100 µg/mL (≈ 259 µM); against Candida albicans, 25 µg/mL (≈ 64.7 µM); in the assay on Staphylococcus aureus, 12.5 µg/mL (≈ 32.3 µM).
Regarding `CC1CCCC(C)N1CC#CCn1nc(-c2ccc(Cl)cc2)n(-c2ccccc2)c1=O` (stereo unspecified), the minimal inhibitory concentration (MIC) was 25 µg/mL (≈ 57.5 µM) against Escherichia coli, 50 µg/mL (≈ 115 µM) in the assay with Pseudomonas aeruginosa, 25 µg/mL (≈ 57.5 µM) in the assay on Candida albicans and 25 µg/mL (≈ 57.5 µM) against Staphylococcus aureus.
Take `CC1CCCC(C)N1CC#CCn1nc(-c2ccccc2)n(-c2ccccc2)c1=O` (stereo unspecified): the MIC in the assay on Escherichia coli came to 12.5 µg/mL (≈ 31.2 µM); against Pseudomonas aeruginosa, 50 µg/mL (≈ 125 µM); in the assay with Candida albicans it was 25 µg/mL (≈ 62.4 µM); in the assay with Staphylococcus aureus, 12.5 µg/mL (≈ 31.2 µM).
Regarding `CC1CCCN(CC#CCn2nc(-c3ccccc3)n(-c3ccccc3)c2=O)C1` (stereo unspecified), the MIC with Escherichia coli was 12.5 µg/mL (≈ 32.3 µM); with Pseudomonas aeruginosa it was 50 µg/mL (≈ 129 µM); in the assay on Candida albicans, 12.5 µg/mL (≈ 32.3 µM); against Staphylococcus aureus, 12.5 µg/mL (≈ 32.3 µM).
Take `O=c1n(CC#CCN2CCCCC2)nc(-c2ccc(Cl)cc2)n1-c1ccccc1`: the MIC with Escherichia coli worked out at 50 µg/mL (≈ 123 µM); in the assay with Pseudomonas aeruginosa, 100 µg/mL (≈ 246 µM); against Candida albicans, 25 µg/mL (≈ 61.4 µM); in the assay with Staphylococcus aureus, 12.5 µg/mL (≈ 30.7 µM).
On the same counts, the results for `CC1CCCC(C)N1CC#CCn1nc(-c2ccccc2)n(-c2cccc3ccccc23)c1=O` (stereo unspecified) are 50 µg/mL (≈ 111 µM), 100 µg/mL (≈ 222 µM), 50 µg/mL (≈ 111 µM) and 50 µg/mL (≈ 111 µM).
For the compound `O=c1n(CC#CCN2CCCCCC2)nc(-c2ccccc2)n1-c1cccc2ccccc12`, the MIC in the assay on Escherichia coli came out at 50 µg/mL (≈ 115 µM); in the assay with Pseudomonas aeruginosa it was 50 µg/mL (≈ 115 µM); against Candida albicans, 25 µg/mL (≈ 57.3 µM); in the assay on Staphylococcus aureus, 25 µg/mL (≈ 57.3 µM).

Source of the values: ChEMBL document CHEMBL3046153, “Synthesis and antimicrobial evaluation of 4,5-diaryl-2-[4-(t-amino)-2-butynyl]-2,4-dihydro-3H-1,2,4-triazol-3-ones” (2012).
